# Test results from patent US10597388B2, “Pyridazinone herbicides” (FMC CORPORATION, priority 2014, dated 2020).
# Assays:
# Assay in all cases: Test E greenhouse herbicide test, pre- and postemergence
# Format in all cases: in vivo
# [1] = test system: beggarticks (hairy beggarticks, Bidens pilosa)
# Outline: (§1)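 Compounds in a non-phytotoxic solvent mixture with surfactant were applied preemergence to seeds in silt loam soil and postemergence to 2-18 cm plants (1- to 4-leaf stage) in peat-based medium. After 14 to 21 d in a greenhouse, injury was rated visually against untreated controls on a 0 (no effect) to 100 (complete control) scale.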
# [2] = test system: barnyardgrass (Echinochloa crus-galli)
# Outline: as §1
# [3] = test system: sandbur (southem sandbur, Cenchrus echinatus)
# Outline: as §1
# [4] = test system: foxtail, green (green foxtail, Setaria viridis); conditions: Preemergence
# Outline: as §1
# [5] = test system: nutsedge, yellow (yellow nutsedge, Cyperus esculentus); conditions: Preemergence
# Outline: as §1
# [6] = test system: velvetleaf (Abutilon theophrasti); conditions: Preemergence
# Outline: as §1
# soybean (Glycine max) = test system: soybean (Glycine max)
# Outline: as §1
# [7] = test system: horseweed (Conyza canadensis); conditions: Postemergence
# Outline: as §1
# [8] = test system: dayflower (Virginia (VA) dayflower, Commelina virginica)
# Outline: as §1
# [9] = test system: foxtail, giant (giant foxtail, Setaria faberii); conditions: Preemergence
# Outline: as §1
# [10] = test system: panicum, fall (fall panicum, Panicum dichotomiflorum)
# Outline: as §1
# [11] = test system: johnsongrass (Sorghum halepense); conditions: Preemergence
# Outline: as §1
# [12] = test system: pigweed, palmer (palmer pigweed, Amaranthus palmeri)
# Outline: as §1
# [13] = test system: ragweed (common ragweed, Ambrosia elatior)
# Outline: as §1
# corn (Zea mays) = test system: corn (Zea mays)
# Outline: as §1
# [14] = test system: lambsquarters (Chenopodium album); conditions: Preemergence
# Outline: as §1
# [15] = 62 g ai/ha, Postemergence, scale 0 to 100 (0 no effect, 100 complete control)
# [16] = 62 g ai/ha, Preemergence, scale 0 to 100 (0 no effect, 100 complete control)
# [17] = 125 g ai/ha, Postemergence, scale 0 to 100 (0 no effect, 100 complete control)
# [18] = 125 g ai/ha, Preemergence, scale 0 to 100 (0 no effect, 100 complete control)
# [19] = Postemergence, 16 g ai/ha, visual, scale 0 no effect to 100 complete control
# [20] = Postemergence, 31 g ai/ha, visual, scale 0 no effect to 100 complete control
# [21] = Preemergence, 16 g ai/ha, scale 0 to 100, 0 no effect, 100 complete control
# [22] = Preemergence, 31 g ai/ha, scale 0 to 100, 0 no effect, 100 complete control
# [23] = 62 g ai/ha, scale 0 to 100 (0 no effect, 100 complete control)
# [24] = 125 g ai/ha, scale 0 to 100 (0 no effect, 100 complete control)
# [25] = 16 g ai/ha, scale 0 to 100, 0 no effect, 100 complete control
# [26] = 31 g ai/ha, scale 0 to 100, 0 no effect, 100 complete control
structure (smiles),measurement,setting,value
Cc1ccc2sc(C)c(-c3c(OC(=O)OC(C)C)c(C)nn(C)c3=O)c2c1 [Compound 66],"Plant response rating, Beggarticks",[1]; [15],90
same,"Plant response rating, Beggarticks",[1]; [16],95
same,"Plant response rating, Beggarticks",[1]; [17],100
same,"Plant response rating, Beggarticks",[1]; [18],100
same,"Plant response rating, Beggarticks",[1]; [19],75
same,"Plant response rating, Beggarticks",[1]; [20],80
same,"Plant response rating, Beggarticks",[1]; [21],65
same,"Plant response rating, Beggarticks",[1]; [22],70
same,"Plant response rating, Barnyardgrass",[2]; [15],25
same,"Plant response rating, Barnyardgrass",[2]; [16],20
same,"Plant response rating, Barnyardgrass",[2]; [17],20
same,"Plant response rating, Barnyardgrass",[2]; [18],15
same,"Plant response rating, Barnyardgrass",[2]; [19],20
same,"Plant response rating, Barnyardgrass",[2]; [20],15
same,"Plant response rating, Barnyardgrass",[2]; [21],0
same,"Plant response rating, Barnyardgrass",[2]; [22],15
same,"Plant response rating, Sandbur",[3]; [15],50
same,"Plant response rating, Sandbur",[3]; [16],10
same,"Plant response rating, Sandbur",[3]; [17],60
same,"Plant response rating, Sandbur",[3]; [18],70
same,"Plant response rating, Sandbur",[3]; [19],25
same,"Plant response rating, Sandbur",[3]; [20],40
same,"Plant response rating, Sandbur",[3]; [21],0
same,"Plant response rating, Sandbur",[3]; [22],0
same,"Plant response rating, Foxtail, Green",[4]; [23],35
same,"Plant response rating, Foxtail, Green",[4]; [24],70
same,"Plant response rating, Foxtail, Green",[4]; [25],0
same,"Plant response rating, Foxtail, Green",[4]; [26],0
same,"Plant response rating, Nutsedge, Yellow",[5]; [23],65
same,"Plant response rating, Nutsedge, Yellow",[5]; [24],50
same,"Plant response rating, Nutsedge, Yellow",[5]; [25],0
same,"Plant response rating, Nutsedge, Yellow",[5]; [26],5
same,"Plant response rating, Velvetleaf",[6]; [23],20
same,"Plant response rating, Velvetleaf",[6]; [24],80
same,"Plant response rating, Velvetleaf",[6]; [25],0
same,"Plant response rating, Velvetleaf",[6]; [26],0
same,"Plant response rating, Soybean",soybean (Glycine max); [15],20
same,"Plant response rating, Soybean",soybean (Glycine max); [16],0
same,"Plant response rating, Soybean",soybean (Glycine max); [17],20
same,"Plant response rating, Soybean",soybean (Glycine max); [18],0
same,"Plant response rating, Soybean",soybean (Glycine max); [19],0
same,"Plant response rating, Soybean",soybean (Glycine max); [20],0
same,"Plant response rating, Soybean",soybean (Glycine max); [21],0
same,"Plant response rating, Soybean",soybean (Glycine max); [22],0
same,"Plant response rating, Horseweed",[7]; [23],90
same,"Plant response rating, Horseweed",[7]; [24],90
same,"Plant response rating, Horseweed","[7]; 16 g ai/ha, visual, scale 0 no effect to 100 complete control",60
same,"Plant response rating, Horseweed","[7]; 31 g ai/ha, visual, scale 0 no effect to 100 complete control",80
same,"Plant response rating, Dayflower, VA",[8]; [15],60
same,"Plant response rating, Dayflower, VA",[8]; [16],0
same,"Plant response rating, Dayflower, VA",[8]; [17],50
same,"Plant response rating, Dayflower, VA",[8]; [18],20
same,"Plant response rating, Dayflower, VA",[8]; [19],0
same,"Plant response rating, Dayflower, VA",[8]; [20],25
same,"Plant response rating, Dayflower, VA",[8]; [21],0
same,"Plant response rating, Dayflower, VA",[8]; [22],0
same,"Plant response rating, Foxtail, Giant",[9]; [23],40
same,"Plant response rating, Foxtail, Giant",[9]; [24],90
same,"Plant response rating, Foxtail, Giant",[9]; [25],0
same,"Plant response rating, Foxtail, Giant",[9]; [26],5
same,"Plant response rating, Panicum, Fall",[10]; [15],70
same,"Plant response rating, Panicum, Fall",[10]; [16],95
same,"Plant response rating, Panicum, Fall",[10]; [17],80
same,"Plant response rating, Panicum, Fall",[10]; [18],98
same,"Plant response rating, Panicum, Fall",[10]; [19],30
same,"Plant response rating, Panicum, Fall",[10]; [20],70
same,"Plant response rating, Panicum, Fall",[10]; [21],10
same,"Plant response rating, Panicum, Fall",[10]; [22],60
same,"Plant response rating, Johnsongrass",[11]; [23],0
same,"Plant response rating, Johnsongrass",[11]; [24],0
same,"Plant response rating, Johnsongrass",[11]; [25],0
same,"Plant response rating, Johnsongrass",[11]; [26],0
same,"Plant response rating, Pigweed, Palmer",[12]; [15],60
same,"Plant response rating, Pigweed, Palmer",[12]; [16],65
same,"Plant response rating, Pigweed, Palmer",[12]; [17],80
same,"Plant response rating, Pigweed, Palmer",[12]; [18],100
same,"Plant response rating, Pigweed, Palmer",[12]; [19],50
same,"Plant response rating, Pigweed, Palmer",[12]; [20],70
same,"Plant response rating, Pigweed, Palmer",[12]; [21],0
same,"Plant response rating, Pigweed, Palmer",[12]; [22],0
same,"Plant response rating, Ragweed",[13]; [15],80
same,"Plant response rating, Ragweed",[13]; [16],90
same,"Plant response rating, Ragweed",[13]; [17],90
same,"Plant response rating, Ragweed",[13]; [18],100
same,"Plant response rating, Ragweed",[13]; [19],75
same,"Plant response rating, Ragweed",[13]; [20],80
same,"Plant response rating, Ragweed",[13]; [21],25
same,"Plant response rating, Ragweed",[13]; [22],65
same,"Plant response rating, Corn",corn (Zea mays); [15],10
same,"Plant response rating, Corn",corn (Zea mays); [16],0
same,"Plant response rating, Corn",corn (Zea mays); [17],15
same,"Plant response rating, Corn",corn (Zea mays); [18],20
same,"Plant response rating, Corn",corn (Zea mays); [19],0
same,"Plant response rating, Corn",corn (Zea mays); [20],0
same,"Plant response rating, Corn",corn (Zea mays); [21],0
same,"Plant response rating, Corn",corn (Zea mays); [22],0
same,"Plant response rating, Lambsquarters",[14]; [23],100
same,"Plant response rating, Lambsquarters",[14]; [24],100
same,"Plant response rating, Lambsquarters",[14]; [25],5
same,"Plant response rating, Lambsquarters",[14]; [26],90
